Measurements reported in patent publication US20040235855A1, “Phospholipase C inhibitors for use in treating inflammatory disorders” (priority 2003, published 2004).

Molecular target: T1, human PLC-β2 (Homo sapiens, UniProt Q00722)
T1 construct: made in house; host or cells: Sf9 cells (Spodoptera frugiperda), recombinant baculovirus
Test: PLC assay using FlashPlates (96-well, immobilized [3H]PIP2 substrate)
Format: biochemical
Details: purified recombinant human PLC-β2 or cytosolic human PLC-β2; hydrolysis of [3H]PIP2
Text: The hydrolysis of phosphatidylinositol-4,5-bisphosphate (PIP2) by a specific phospholipase C-β2 (PLC-β2) produces two intracellular messengers, diacylglycerol (DAG) and inositol 1,4,5-trisphosphate (IP3), which mediate the activation of protein kinase C and intracellular Ca^2+ release. A conventional organic solvent extraction method is widely used for PLC assays to isolate IP3 from the substrate PIP2. The conventional PLC-β2 assay, however is terminated by addition of acidified organic solvents and subsequent extraction and phase separation. […] Accordingly, a preferred method to test the compounds of the present invention, was developed utilizing a 96-well plate assay for PLC-β2 using immobilized radiolabeled substrate to quantitatively measure the reduction in the substrate level without a need for organic solvent extraction. The automated PLC-β2 assay described herein provides a convenient method for quantitative measurement of phospholipase C activities in a high throughput fashion. Ninety-six well Phospholipid FlashPlates were coated with 0.2 mL of 50 mM Tris/HCl (pH 7.4), 0.01% Ac-BSA and 50,000 cpm of […] (phosphatidylinositol-4,5-bisphosphate) at 4° C. for 72 h. The wells were aspirated and washed twice with PBS. The reactions were conducted directly in the wells in PLC reaction buffer containing 50 mM Tris/HCl (pH 7.2), 2.75 mM EDTA (pH 7.3), 80 mM KCl, 10 mM LiCl, 0.04% DOC and 2 mM CaCl2 in the absence or presence of the purified recombinant human PLC-β2 (prepared as described hereafter) or cytosolic human PLC-β2 from […]. Reduction of radioactivity was monitored by a Packard TopCount instrument (Packard Instrument Company, Conn., USA). […] The cells were grown in Grace's media supplemented with 10% (v/v) fetal bovine serum, 3.3 g/l yeastolate, 3.3 g/l lactalbumin hydrosylate, glutamine (6.4 mM final), 50 μg/ml gentamicin, and 50 μg/ml kanamycin. Suspension of Sf9 cells (1.0×10^6 cells/ml) were infected with 5 pfu/cell of recombinant baculovirus encoding PLC-β2 and incubated at 27° C. for 72 h. The cells were collected by centrifugation (500×g, 7 min, 4° C.) and disrupted by hypotonic lysis buffer containing 20 mM Tris/HCl, pH 7.4, 5 mM MgCl2, 2 mM EGTA, 200 μM PMSF, 200 μM benzamidine and 1 μM pepstatin A. The lysate was sonicated on ice and the nuclei and unbroken cells removed by centrifigation (500×g, 5 min, 4C.). The supernatant was recovered and clarified by centrifugation (34,000 rpm, 60 min, 4C.). The supernatant was used as a crude cytosolic fraction (Paterson, A., Boyer, J. L., Watts, V. J., Morris, A. J., Price, […]. (1995) Concentration of enzyme-dependent activation of PLC β1 and PLC β2 by Gα11 and βγ subunits. Cellular Signalling 7, 709-720). Crude cytosol prepared from Sf9 cells expressing PLC-β2 was purified initially by chromatography on a 10 ml column of Q-Sepharose FF, equilibrated in buffer A (25 mM HEPES, pH 7.2,2 mM DTT, 2 mM EDTA, 2 mM EGTA, 200 μM PMSF, 200 μM benzamidine, 1 μM pepstatin A containing 10 mM NaCl). The column was washed with 20 ml of equilibration buffer and eluted with a 200-ml gradient of 110-410 mM NaCl in buffer A. The fractions containing PLC activity were pooled and diluted with buffer A. The diluted enzyme was applied to a 4 ml column of heparin-SepharoseCL-6B equilibrated in buffer A and the column washed with 70 ml of buffer A. The column was eluted with 80 ml of gradient of 0-1.0 M NaCl in buffer A, the column eluate collected in 3 ml fractions. […]

T1 sequence (Q00722 whole entry): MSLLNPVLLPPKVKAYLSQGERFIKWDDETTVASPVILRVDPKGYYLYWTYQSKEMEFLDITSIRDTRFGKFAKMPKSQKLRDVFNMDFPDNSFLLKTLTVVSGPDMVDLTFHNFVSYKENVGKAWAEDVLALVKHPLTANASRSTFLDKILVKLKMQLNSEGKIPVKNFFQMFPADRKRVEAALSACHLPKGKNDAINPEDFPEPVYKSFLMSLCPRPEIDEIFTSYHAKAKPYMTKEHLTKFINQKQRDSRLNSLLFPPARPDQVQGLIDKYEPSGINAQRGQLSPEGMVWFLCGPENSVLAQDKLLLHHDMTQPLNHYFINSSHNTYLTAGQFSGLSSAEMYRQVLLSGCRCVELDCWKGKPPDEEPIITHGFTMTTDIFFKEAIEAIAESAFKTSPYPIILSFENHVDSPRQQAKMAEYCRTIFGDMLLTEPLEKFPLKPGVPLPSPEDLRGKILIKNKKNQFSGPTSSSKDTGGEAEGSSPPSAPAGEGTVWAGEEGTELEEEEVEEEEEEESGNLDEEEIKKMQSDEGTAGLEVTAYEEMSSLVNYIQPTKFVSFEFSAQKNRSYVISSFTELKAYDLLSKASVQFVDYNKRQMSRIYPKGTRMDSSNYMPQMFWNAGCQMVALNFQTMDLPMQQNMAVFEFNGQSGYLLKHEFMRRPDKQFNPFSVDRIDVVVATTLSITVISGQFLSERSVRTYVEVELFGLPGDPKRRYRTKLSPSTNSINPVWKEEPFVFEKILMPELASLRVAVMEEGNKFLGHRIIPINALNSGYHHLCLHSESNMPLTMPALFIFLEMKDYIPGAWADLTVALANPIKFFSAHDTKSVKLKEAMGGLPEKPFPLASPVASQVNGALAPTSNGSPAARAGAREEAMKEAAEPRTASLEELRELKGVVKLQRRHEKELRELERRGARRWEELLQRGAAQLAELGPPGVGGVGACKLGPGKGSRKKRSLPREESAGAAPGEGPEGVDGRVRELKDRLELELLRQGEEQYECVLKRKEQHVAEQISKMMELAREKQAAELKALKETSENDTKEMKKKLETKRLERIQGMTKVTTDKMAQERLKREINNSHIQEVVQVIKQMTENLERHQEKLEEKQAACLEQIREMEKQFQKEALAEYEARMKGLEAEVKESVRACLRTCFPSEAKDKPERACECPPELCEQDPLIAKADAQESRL

Row | IC50 | Compound
1 | 5.6 µM | CN1CCN(C(=O)c2ccc(N3CCN(C(c4ccccc4)c4ccccc4)CC3)c(NC(=O)NC3CCCCC3)c2)CC1 [Cpd 28, N-cyclohexyl-N′-[2-[4-(diphenylmethyl)-1-piperazinyl]-5-[(4-methyl-1-piperazinyl)carbonyl]-phenyl]urea]
2 | > 10 µM | NC(=O)c1ccc(N2CCN(C(c3ccncc3)c3ccc(F)cc3)CC2)c(NC(=O)NC2CCCCC2)c1 (stereo not drawn) [Cpd 78]
3 | 4.3 µM | COc1ccc(NC(=O)Nc2cc(C(N)=O)ccc2N2CCN(C(c3ccc(F)cc3)c3ccc(F)cc3)CC2)cc1 [Cpd 20, 4-[4-[bis(4-fluorophenyl)methyl]-1-piperazinyl]-3-[[[(4-methoxyphenyl)amino]carbonyl]amino]-benzamide]
4 | > 25 µM | O=C(Nc1ccccc1)Nc1cc(C(=O)N2CCNCC2)ccc1N1CCN(Cc2ccccc2)CC1 [Cpd 50, N-phenyl-N′-[2-[4-(phenylmethyl)-1-piperazinyl]-5-(1-piperazinylcarbonyl)phenyl]-urea]
5 | 9 µM | NC(=O)c1ccc(N2CCN(C(c3ccccc3)c3ccccc3)CC2)c(NC(=O)NCc2ccccc2)c1 [Cpd 6, 4-[4-(diphenylmethyl)-1-piperazinyl]-3-[[[(phenylmethyl)amino]carbonyl]amino]-benzamide]
6 | 5.7 µM | COc1ccc(NC(=O)Nc2cc(C(=O)N3CCNCC3)ccc2N2CCN(C(c3ccccc3)c3ccccc3)CC2)cc1 [Cpd 43, N-[2-[4-(diphenylmethyl)-1-piperazinyl]-5-(1-piperazinylcarbonyl)phenyl]-N′-(4-methoxyphenyl)urea]
7 | 2.1 µM | NC(=O)c1ccc(N2CCN(C(c3ccc(F)cc3)c3ccc(F)cc3)CC2)c(NC(=O)Nc2ccccc2F)c1 [Cpd 4, 4-[4-[bis(4-fluorophenyl)methyl]-1-piperazinyl]-3-[[[(2-fluorophenyl)amino]carbonyl]amino]-benzamide]
8 | 5.6 µM | Cc1cc(C)cc(NC(=O)Nc2cc(C(=O)N3CCNCC3)ccc2N2CCN(C(c3ccccc3)c3ccccc3)CC2)c1 [Cpd 42, N-(3,5-dimethylphenyl)-N′-[2-[4-(diphenylmethyl)-1-piperazinyl]-5-(1-piperazinylcarbonyl)phenyl]-urea]
9 | > 25 µM | CCCCNC(=O)Nc1cc(C(=O)N2CCNCC2)ccc1N1CCN(C(c2ccccc2)c2ccccc2)CC1 [Cpd 56, N-butyl-N′-[2-[4-(diphenylmethyl)-1-piperazinyl]-5-(1-piperazinylcarbonyl)phenyl]-urea]
10 | 5.3 µM | Cc1cc(C)cc(NC(=O)Nc2cc(C(N)=O)ccc2N2CCN(C(c3ccccc3)c3ccccc3)CC2)c1 [Cpd 7, 3-[[[(3,5-dimethylphenyl)amino]carbonyl]amino]-4-[4-(diphenylmethyl)-1-piperazinyl]-benzamide]
11 | 5.4 µM | COc1ccccc1NC(=O)Nc1cc(C(=O)N2CCNCC2)ccc1N1CCN(C(c2ccccc2)c2ccccc2)CC1 [Cpd 59, N-[2-[4-(diphenylmethyl)-1-piperazinyl]-5-(1-piperazinylcarbonyl)phenyl]-N′-(2-methoxyphenyl)-urea]
12 | 2.5 µM | O=C(Nc1ccccc1F)Nc1cc(C(=O)N2CCNCC2)ccc1N1CCN(C(c2ccccc2)c2ccccc2)CC1 [Cpd 57, N-[2-[4-(diphenylmethyl)-1-piperazinyl]-5-(1-piperazinylcarbonyl)phenyl]-N′-(2-fluorophenyl)urea]
13 | > 25 µM | O=C(Nc1ccccc1)Nc1cc(C(=O)N2CCNCC2)ccc1N1CCN(C2CCCCC2)CC1 [Cpd 51, N-[2-(4-cyclohexyl-1-piperazinyl)-5-(1-piperazinylcarbonyl)phenyl]-N′-phenylurea]
14 | 3.4 µM | O=C(NC(=S)Nc1cc(C(=O)N2CCNCC2)ccc1N1CCN(C(c2ccccc2)c2ccccc2)CC1)c1ccc(Cl)cc1 [Cpd 67, N-(4-chlorobenzoyl)-N′-[2-[4-(diphenylmethyl)-1-piperazinyl]-5-(1-piperazinylcarbonyl)phenyl]-thiourea]
15 | > 25 µM | CC(c1ccccc1)N1CCN(c2ccc(C(=O)N3CCNCC3)cc2NC(=O)Nc2ccccc2)CC1 (stereo not drawn) [Cpd 48, N-phenyl-N′-[2-[4-(1-phenylethyl)-1-piperazinyl]-5-(1-piperazinylcarbonyl)phenyl]-urea]
16 | 6.6 µM | CN1CCCN(C(=O)c2ccc(N3CCN(C(c4ccccc4)c4ccccc4)CC3)c(NC(=O)NC3CCCCC3)c2)CC1 [Cpd 31, N-cyclohexyl-N′-[2-[4-(diphenylmethyl)-1-piperazinyl]-5-[(hexahydro-4-methyl-1H-1,4-diazepin-1-yl)carbonyl]phenyl]-urea]

More lines, now with the values behind:

Row | Compound | IC50
17 | COc1ccccc1NC(=O)Nc1cc(C(N)=O)ccc1N1CCN(C(c2ccc(F)cc2)c2ccc(F)cc2)CC1 [Cpd 17, 4-[4-[bis(4-fluorophenyl)methyl]-1-piperazinyl]-3-[[[(2-methoxyphenyl)amino]carbonyl]amino]-benzamide] | 2.8 µM
18 | CC(NC(=O)Nc1cc(C(N)=O)ccc1N1CCN(C(c2ccc(F)cc2)c2ccc(F)cc2)CC1)c1ccccc1 (stereo not drawn) [Cpd 16, 4-[4-[bis(4-fluorophenyl)methyl]-1-piperazinyl]-3-[[[(1-phenylethyl)amino]carbonyl]amino]-benzamide] | 6 µM
19 | CC(C)NC(=O)Nc1cc(C(=O)N2CCNCC2)ccc1N1CCN(C(c2ccccc2)c2ccccc2)CC1 [Cpd 66, N-[2-[4-(diphenylmethyl)-1-piperazinyl]-5-(1-piperazinylcarbonyl)phenyl]-N′-(1-methylethyl)urea] | > 25 µM
20 | Cc1ccc(NC(=O)Nc2cc(C(N)=O)ccc2N2CCN(C(c3ccc(F)cc3)c3ccc(F)cc3)CC2)c(C)c1 [Cpd 15, 4-[4-[bis(4-fluorophenyl)methyl]-1-piperazinyl]-3-[[[(2,4-dimethylphenyl)amino]carbonyl]amino]-benzamide] | 4.8 µM
21 | NC(=O)c1ccc(NC(=O)Nc2ccccc2)c(N2CCN(C(c3ccccc3)c3ccccc3)CC2)c1 [Cpd 93, 3-[4-(diphenylmethyl)-1-piperazinyl]-4-[[(phenylamino)carbonyl]amino]-benzamide] | 1.8 µM
22 | O=C(/C=C/c1ccccc1)NC(=O)Nc1cc(C(=O)N2CCNCC2)ccc1N1CCN(C(c2ccccc2)c2ccccc2)CC1 [Cpd 61, N-[2-[4-(diphenylmethyl)-1-piperazinyl]-5-(1-piperazinylcarbonyl)phenyl]-N′-[(2E)-1-oxo-3-phenyl-2-propenyl]-urea] | 4.3 µM
23 | NC(=O)c1ccc(N2CCN(C(c3ccc(F)cc3)c3ccc(F)cc3)CC2)c(NC(=S)Nc2ccccc2)c1 [Cpd 22, 4-[4-[bis(4-fluorophenyl)methyl]-1-piperazinyl]-3-[[(phenylamino)thioxomethyl]amino]-benzamide] | 1.2 µM
24 | CN(C)c1ccc(NC(=O)Nc2cc(C(=O)N3CCNCC3)ccc2N2CCN(C(c3ccccc3)c3ccccc3)CC2)cc1 [Cpd 58, N-[4-(dimethylamino)phenyl]-N′-[2-[4-(diphenylmethyl)-1-piperazinyl]-5-(1-piperazinylcarbonyl)phenyl]-urea] | 7.8 µM
25 | NC(=O)c1ccc(N2CCN(Cc3ccccc3)CC2)c(NC(=O)Nc2ccccc2)c1 [Cpd 2, 3-[[(phenylamino)carbonyl]amino]-4-[4-(phenylmethyl)-1-piperazinyl]-benzamide] | > 25 µM
26 | COc1ccccc1N1CCN(c2ccc(C(=O)N3CCNCC3)cc2NC(=O)NC2CCCCC2)CC1 [Cpd 55, N-cyclohexyl-N′-[2-[4-(2-methoxyphenyl)-1-piperazinyl]-5-(1-piperazinylcarbonyl)phenyl]-urea] | > 25 µM
27 | O=C(NCc1ccccc1)Nc1cc(C(=O)N2CCNCC2)ccc1N1CCN(C(c2ccccc2)c2ccccc2)CC1 [Cpd 39, N-[2-[4-(diphenylmethyl)-1-piperazinyl]-5-(1-piperazinylcarbonyl)phenyl]-N′-(phenylmethyl)urea] | 4.2 µM
